{"source": "patent US20160257697A1", "about": "“THIOPHENE-SUBSTITUTED TETRACYCLIC COMPOUNDS AND METHODS OFUSE THEREOF FOR THE TREATMENT OF VIRAL DISEASES” (priority 2013, published 2016)", "assay_in_all_cases": "microbe, parasite or virus in culture", "assay_type_in_all_cases": "cell-based, Hepatitis C virus (HCV)", "details_in_all_cases": "Replicon Assay A", "key": {"HCV replicon 1AY93H": {"system": "HCV replicon 1AY93H", "outline": "(§1)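 Compound is added to replicon cells plated at 2000 cells/well (0.5% DMSO, 5% FBS). After 3 days the cells are washed and lysed, and HCV RNA and cyclophilin mRNA are quantified by multiplex RT-PCR against a standard curve of known replicon total RNA.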"}, "HCV replicon 1A": {"system": "HCV replicon 1A", "outline": "as §1"}, "HCV replicon 2B": {"system": "HCV replicon 2B", "outline": "as §1"}, "[1]": {"details": "read-out: 1A Y93H IC50, replicon 1AY93H"}, "[2]": {"details": "read-out: 1A Y93H IC50, HCV replicon 1A Y93H"}, "[3]": {"details": "read-out: 2B IC50, HCV replicon 2B"}, "[4]": {"details": "Hepatitis C virus, read-out: 1A Y93H IC50, HCV replicon 1A Y93H"}, "[5]": {"details": "Hepatitis C virus, HCV replicon 1A"}, "[6]": {"details": "Hepatitis C virus, read-out: 2B IC50, HCV replicon 2B"}}, "note": "Where two headings read alike, the source gives them in different places."}
{"smiles": "COC(=O)NC(C(=O)N1CCC[C@H]1c1ncc(-c2ccc3c(c2)cc2n3C(c3cc(C)c(C)s3)Oc3cc(-c4cnc([C@@H]5CCCN5C(=O)[C@@H](NC(=O)OC)C5CCOCC5)[nH]4)cc(F)c3-2)[nH]1)C(C)(C)F", "note": "(single isomer, unassigned) [Compound 129]", "values": [{"measurement": "IC50", "setting": "HCV replicon 1AY93H; [1]", "result": 0.8, "unit": "nM"}, {"measurement": "IC50", "setting": "HCV replicon 1A; replicon 1A", "result": 0.001, "unit": "nM"}, {"measurement": "IC50", "setting": "HCV replicon 2B; read-out: 2B IC50, replicon 2B", "result": 1.17, "unit": "nM"}]}
{"smiles": "COC(=O)N[C@H](C(=O)N1CCC[C@H]1c1ncc(-c2cc(F)c3c(c2)OC(c2cc4c(s2)CCC4)n2c-3cc3cc(-c4cnc([C@@H]5C[C@H]6C[C@H]6N5C(=O)[C@@H](NC(=O)OC)C5C[C@@H](C)O[C@@H](C)C5)[nH]4)ccc32)[nH]1)C(C)C", "note": "(single isomer, unassigned) [Compound 552]", "values": [{"measurement": "IC50", "setting": "HCV replicon 1AY93H; [2]", "result": 0.839, "unit": "nM"}, {"measurement": "IC50", "setting": "HCV replicon 1A; HCV replicon 1A", "result": 0.00978, "unit": "nM"}, {"measurement": "IC50", "setting": "HCV replicon 2B; [3]", "result": 0.409, "unit": "nM"}]}
{"smiles": "CCc1ccc(C2Oc3cc(-c4cnc([C@@H]5CCCN5C(=O)[C@@H](NC(=O)OC)C(C)C)[nH]4)cc(F)c3-c3cc4cc(-c5cnc([C@@H]6C[C@H]7C[C@H]7N6C(=O)C(NC(=O)OC)C6CCOC(C)(C)C6)[nH]5)ccc4n32)s1", "note": "(single isomer, unassigned) [Compound 197]", "values": [{"measurement": "IC50", "setting": "HCV replicon 1AY93H; [1]", "result": 0.1, "unit": "nM"}, {"measurement": "IC50", "setting": "HCV replicon 1A; replicon 1A", "result": 0.0021, "unit": "nM"}, {"measurement": "IC50", "setting": "HCV replicon 2B; read-out: 2B IC50, replicon 2B", "result": 0.47, "unit": "nM"}]}
{"smiles": "[2H]C(C)(C)C(NC(=O)OC)C(=O)N1CCC[C@H]1c1ncc(-c2cc(F)c3c(c2)OC(c2ccc(C4CC4)s2)n2c-3cc3cc(-c4cnc([C@@H]5CCCN5C(=O)[C@@H](NC(=O)OC)C(C)C)[nH]4)ccc32)[nH]1", "note": "(single isomer, unassigned) [Compound 32]", "values": [{"measurement": "IC50", "setting": "HCV replicon 1AY93H; [1]", "result": 1.42, "unit": "nM"}, {"measurement": "IC50", "setting": "HCV replicon 1A; replicon 1A", "result": 0.0013, "unit": "nM"}, {"measurement": "IC50", "setting": "HCV replicon 2B; read-out: 2B IC50, replicon 2B", "result": 6.02, "unit": "nM"}]}
{"smiles": "COC(=O)N[C@H](C(=O)N1CCC[C@H]1c1nc(-c2ccc3c(c2)OC(c2ccc(C)s2)n2c-3cc3cc(-c4c[nH]c([C@@H]5NCCN5C(=O)[C@@H](NC(=O)OC)C(C)C)n4)ccc32)c[nH]1)C(C)C", "note": "(single isomer, unassigned) [Compound 702]", "values": [{"measurement": "IC50", "setting": "HCV replicon 1AY93H; [2]", "result": 3.85, "unit": "nM"}, {"measurement": "IC50", "setting": "HCV replicon 1A; HCV replicon 1A", "result": 0.0074, "unit": "nM"}, {"measurement": "IC50", "setting": "HCV replicon 2B; [3]", "result": 3.98, "unit": "nM"}]}
{"smiles": "COC(=O)N[C@H](C(=O)N1CCC[C@H]1c1ncc(-c2cc(C)c3c(c2)OC(c2cc4c(s2)CCC4)n2c-3cc3cc(-c4cnc([C@@H]5CCCN5C(=O)[C@@H](NC(=O)OC)C5CCOCC5)[nH]4)ccc32)[nH]1)C(C)C", "note": "(single isomer, unassigned) [Compound 540]", "values": [{"measurement": "IC50", "setting": "HCV replicon 1AY93H; [4]", "result": 2.14, "unit": "nM"}, {"measurement": "IC50", "setting": "HCV replicon 1A; [5]", "result": 0.00859, "unit": "nM"}, {"measurement": "IC50", "setting": "HCV replicon 2B; [6]", "result": 0.147, "unit": "nM"}]}
{"smiles": "COC(=O)NC(C(=O)N1CCC[C@H]1c1ncc(-c2ccc3c(c2)cc2n3C(c3ccc(C(C)C)s3)Oc3cc(-c4cnc([C@@H]5CCCN5C(=O)[C@@H](NC(=O)OC)C(C)C)[nH]4)cc(F)c3-2)[nH]1)C1CCOC(C)(C)C1", "note": "(single isomer, unassigned) [Compound 238]", "values": [{"measurement": "IC50", "setting": "HCV replicon 1AY93H; [1]", "result": 3.12, "unit": "nM"}, {"measurement": "IC50", "setting": "HCV replicon 1A; replicon 1A", "result": 0.13, "unit": "nM"}, {"measurement": "IC50", "setting": "HCV replicon 2B; read-out: 2B IC50, replicon 2B", "result": 7.05, "unit": "nM"}]}
{"smiles": "COC(=O)N[C@H](C(=O)N1CCC[C@H]1c1nc(-c2ccc3c(c2)OC(c2ccc(C4CC4)s2)n2c-3cc3cc(-c4c[nH]c([C@@H]5CCCN5C(=O)[C@@H](NC(=O)OC)C5CCOCC5)n4)ccc32)c[nH]1)C1CCOCC1", "note": "(mixture of isomers) [Compound 728]", "values": [{"measurement": "IC50", "setting": "HCV replicon 1AY93H; [4]", "result": 0.02, "unit": "nM"}, {"measurement": "IC50", "setting": "HCV replicon 1A; [5]", "result": 0.022, "unit": "nM"}, {"measurement": "IC50", "setting": "HCV replicon 2B; [6]", "result": 0.022, "unit": "nM"}]}
{"smiles": "COC(=O)NC(C(=O)N1[C@@H]2C[C@@H]2C[C@H]1c1ncc(-c2ccc3c(c2)c(F)c2n3C(c3ccc(C4CC4)s3)Oc3cc(-c4cnc([C@@H]5CCCN5C(=O)[C@@H](NC(=O)OC)C(C)C)[nH]4)cc(F)c3-2)[nH]1)C1CCOC(C)(C)C1", "note": "(single isomer, unassigned) [Compound 422]", "values": [{"measurement": "IC50", "setting": "HCV replicon 1AY93H; [2]", "result": 0.107, "unit": "nM"}, {"measurement": "IC50", "setting": "HCV replicon 1A; [5]", "result": 0.0023, "unit": "nM"}, {"measurement": "IC50", "setting": "HCV replicon 2B; [3]", "result": 0.138, "unit": "nM"}]}
{"smiles": "COC(=O)NC(C(=O)N1CCC[C@H]1c1ncc(-c2cc(F)c3c(c2)OC(c2ccc(C4CC4)s2)n2c-3cc3cc(-c4cnc([C@@H]5CCCN5C(=O)[C@@H](NC(=O)OC)C(C)C)[nH]4)ccc32)[nH]1)C1CCOC(C)(C)C1", "note": "(single isomer, unassigned) [Compound 213]", "values": [{"measurement": "IC50", "setting": "HCV replicon 1AY93H; [1]", "result": 13.6, "unit": "nM"}, {"measurement": "IC50", "setting": "HCV replicon 1A; replicon 1A", "result": 0.0653, "unit": "nM"}]}
{"smiles": "COC(=O)NC(C(=O)N1CCC[C@H]1c1ncc(-c2ccc3c(c2)cc2n3C(c3cc(C)c(C)s3)Oc3cc(-c4cnc([C@@H]5CCCN5C(=O)[C@@H](NC(=O)OC)C(C)C)[nH]4)cc(F)c3-2)[nH]1)C(C)(C)F", "note": "(single isomer, unassigned) [Compound 42]", "values": [{"measurement": "IC50", "setting": "HCV replicon 1AY93H; [1]", "result": 42.5, "unit": "nM"}, {"measurement": "IC50", "setting": "HCV replicon 1A; replicon 1A", "result": 0.0287, "unit": "nM"}]}
{"smiles": "COC(=O)NC(C(=O)N1CCC[C@H]1c1ncc(-c2ccc3c(c2)cc2n3C(c3cc(C)c(C)s3)Oc3cc(-c4cnc([C@@H]5CCCN5C(=O)[C@@H](NC(=O)OC)C(C)C)[nH]4)cc(F)c3-2)[nH]1)C(C)(C)F", "note": "(single isomer, unassigned) [Compound 41]", "values": [{"measurement": "IC50", "setting": "HCV replicon 1AY93H; [1]", "result": 2.45, "unit": "nM"}, {"measurement": "IC50", "setting": "HCV replicon 1A; replicon 1A", "result": 0.002, "unit": "nM"}]}
{"smiles": "CC[C@@H]1CC(C(NC(=O)OC)C(=O)N2CCC[C@H]2c2ncc(-c3ccc4c(c3)cc3n4C(c4ccc(C5CC5)s4)Oc4cc(-c5cnc([C@@H]6CCCN6C(=O)[C@@H](NC(=O)OC)C(C)C)[nH]5)cc(F)c4-3)[nH]2)C[C@H](CC)O1", "note": "(single isomer, unassigned) [Compound 288]", "values": [{"measurement": "IC50", "setting": "HCV replicon 1AY93H; [1]", "result": 16, "unit": "nM"}, {"measurement": "IC50", "setting": "HCV replicon 1A; replicon 1A", "result": 0.0046, "unit": "nM"}]}
